Columns and labels:
Type in all cases: in vivo
Tygress tomato plants [1] = test: Foliar nutrient concentration 2 weeks after treatment, greenhouse tomato (Examples 4-6); details: for B concentration in tomato leaves / Ca concentration in tomato leaves / Cu concentration in tomato leaves / Fe concentration in tomato leaves / K concentration in tomato leaves / Mg concentration in tomato leaves / Mn concentration in tomato leaves / N concentration in tomato leaves / P concentration in tomato leaves: 2 weeks after treatment
Procedure: (§1) The following experiments were performed in a green house during the fall of 2008 and spring of 2009 at GCREC, Balm, University of Florida. Crop set-up, procedures and variables were as follows.
(§2) Transplants of Tygress' tomato plants were planted in 2-gallon pots filled with commercial planting medium with nutrient concentration of Fe, Zn, Mn, Cu being negligible and insufficient for crop growth. Irrigation and non-micronutrient fertilizer were provided daily through microsprinklers at recommended rates for tomato production in Florida. No pesticides were used. Treatments were as described in Tables 4, 5 and 6 below.
(§3) Treatments were applied at 5 WAT (weeks after transplanting) using a water volume of 200 mL/plant. A non-ionic surfactant was added. Foliar tissue analysis was performed at 3 and 7 WAT on the non-applied newest leaves. The concentrations of N, P, K, Mg, Ca, B, Zn, Mn, Fe, and Cu in the foliar tissue were determined from foliar analysis by a commercial laboratory at 2 weeks before treatment and again at 2 weeks after treatment.
(§4) Deionized water was used for foliar applications, and other nutrients were applied as appropriate under non-limiting conditions. Marketable fruit were collected three times during the growing season, starting at 10 WAT (5 weeks after the initial treatment). Tomato fruit was graded as extra-large, large and medium. Non-marketable fruit were harvested and number and weight recorded but not sized.
(§5) Experimental design was a randomized complete block design with 6 replications. Data were analyzed using a general linear model, and means were separated using an LSD test at the 5% significance level.

Tygress tomato plants [2] = test: Plant injury observed after BIOX-A foliar application, greenhouse tomato (Example 6); details: BIOX-A at concentrations of 2.86 or higher
Procedure: The following experiments were performed in a green house during the fall of 2008 and spring of 2009 at GCREC, Balm, University of Florida. Crop set-up, procedures and variables were as follows. […] Irrigation and non-micronutrient fertilizer were provided daily through microsprinklers at recommended rates for tomato production in Florida. No pesticides were used. Treatments were as described in Tables 4, 5 and 6 below. […] Treatments were applied at 5 WAT (weeks after transplanting) using a water volume of 200 mL/plant. A non-ionic surfactant was added. […] There were no significant differences between the foliar nutrient concentration of the leaves of any of the treatment groups prior to treatment.

Tygress tomato plants [3] = test: Yields of tomato fruits, greenhouse (Examples 4-6); details: for Marketable yield: tomato fruits
Procedure: as §1, §2, §3, §4, §5

CSCCC(O)C(=O)O (stereo not shown) [BIOX-A, 2-hydroxy-4(methylthio)butanoic acid]
B concentration in tomato leaves (Tygress tomato plants [1]; BIOX-A 0.69 lb/acre): 27 ppm
Ca concentration in tomato leaves (Tygress tomato plants [1]; BIOX-A 0.69 lb/acre): 0.5%
Cu concentration in tomato leaves (Tygress tomato plants [1]; BIOX-A 0.69 lb/acre): 29 ppm
Fe concentration in tomato leaves (Tygress tomato plants [1]; BIOX-A 0.69 lb/acre): 85 ppm
K concentration in tomato leaves (Tygress tomato plants [1]; BIOX-A 0.69 lb/acre): 3.2%
Mg concentration in tomato leaves (Tygress tomato plants [1]; BIOX-A 0.69 lb/acre): 0.3%
Mn concentration in tomato leaves (Tygress tomato plants [1]; BIOX-A 0.69 lb/acre): 56 ppm
N concentration in tomato leaves (Tygress tomato plants [1]; BIOX-A 0.69 lb/acre): 3.4%
P concentration in tomato leaves (Tygress tomato plants [1]; BIOX-A 0.69 lb/acre): 0.6%
B concentration in tomato leaves (Tygress tomato plants [1]; BIOX-A 1.37 lb/acre): 28 ppm
Ca concentration in tomato leaves (Tygress tomato plants [1]; BIOX-A 1.37 lb/acre): 0.6%
Cu concentration in tomato leaves (Tygress tomato plants [1]; BIOX-A 1.37 lb/acre): 31 ppm
Fe concentration in tomato leaves (Tygress tomato plants [1]; BIOX-A 1.37 lb/acre): 88 ppm
K concentration in tomato leaves (Tygress tomato plants [1]; BIOX-A 1.37 lb/acre): 3.4%
Mg concentration in tomato leaves (Tygress tomato plants [1]; BIOX-A 1.37 lb/acre): 0.3%
Mn concentration in tomato leaves (Tygress tomato plants [1]; BIOX-A 1.37 lb/acre): 55 ppm
N concentration in tomato leaves (Tygress tomato plants [1]; BIOX-A 1.37 lb/acre): 3.7%
P concentration in tomato leaves (Tygress tomato plants [1]; BIOX-A 1.37 lb/acre): 0.4%
B concentration in tomato leaves (Tygress tomato plants [1]; BIOX-A 2.86 lb/acre): 28 ppm
Ca concentration in tomato leaves (Tygress tomato plants [1]; BIOX-A 2.86 lb/acre): 0.6%
Cu concentration in tomato leaves (Tygress tomato plants [1]; BIOX-A 2.86 lb/acre): 50 ppm
Fe concentration in tomato leaves (Tygress tomato plants [1]; BIOX-A 2.86 lb/acre): 87 ppm
K concentration in tomato leaves (Tygress tomato plants [1]; BIOX-A 2.86 lb/acre): 3.3%
Mg concentration in tomato leaves (Tygress tomato plants [1]; BIOX-A 2.86 lb/acre): 0.1%
Mn concentration in tomato leaves (Tygress tomato plants [1]; BIOX-A 2.86 lb/acre): 54 ppm
N concentration in tomato leaves (Tygress tomato plants [1]; BIOX-A 2.86 lb/acre): 3.1%
P concentration in tomato leaves (Tygress tomato plants [1]; BIOX-A 2.86 lb/acre): 0.4%
B concentration in tomato leaves (Tygress tomato plants [1]; BIOX-A 5.52 lb/acre): 24 ppm
Ca concentration in tomato leaves (Tygress tomato plants [1]; BIOX-A 5.52 lb/acre): 0.6%
Cu concentration in tomato leaves (Tygress tomato plants [1]; BIOX-A 5.52 lb/acre): 28 ppm
Fe concentration in tomato leaves (Tygress tomato plants [1]; BIOX-A 5.52 lb/acre): 90 ppm
K concentration in tomato leaves (Tygress tomato plants [1]; BIOX-A 5.52 lb/acre): 2.1%
Mg concentration in tomato leaves (Tygress tomato plants [1]; BIOX-A 5.52 lb/acre): 0.1%
Mn concentration in tomato leaves (Tygress tomato plants [1]; BIOX-A 5.52 lb/acre): 53 ppm
N concentration in tomato leaves (Tygress tomato plants [1]; BIOX-A 5.52 lb/acre): 2.7%
P concentration in tomato leaves (Tygress tomato plants [1]; BIOX-A 5.52 lb/acre): 0.5%
B concentration in tomato leaves (Tygress tomato plants [1]; BIOX-A 8.28 lb/acre): 25 ppm
Ca concentration in tomato leaves (Tygress tomato plants [1]; BIOX-A 8.28 lb/acre): 0.5%
Cu concentration in tomato leaves (Tygress tomato plants [1]; BIOX-A 8.28 lb/acre): 25 ppm
Fe concentration in tomato leaves (Tygress tomato plants [1]; BIOX-A 8.28 lb/acre): 9 ppm
K concentration in tomato leaves (Tygress tomato plants [1]; BIOX-A 8.28 lb/acre): 0.9%
Mg concentration in tomato leaves (Tygress tomato plants [1]; BIOX-A 8.28 lb/acre): 0.1%
Mn concentration in tomato leaves (Tygress tomato plants [1]; BIOX-A 8.28 lb/acre): 57 ppm
N concentration in tomato leaves (Tygress tomato plants [1]; BIOX-A 8.28 lb/acre): 1.7%
P concentration in tomato leaves (Tygress tomato plants [1]; BIOX-A 8.28 lb/acre): 0.6%
Effect on foliar concentration of N, P, K, Mg, Ca, B, Mn, Fe and Zn relative to the control (Tygress tomato plants [1]; BIOX-A, all applied concentrations, P>0.05): None of the applied concentrations of BIOX-A had a significant effect
Plant injury (in words) (Tygress tomato plants [2]): severely injured tomato plants
Marketable and unmarketable yields (in words) (Tygress tomato plants [3]; 1.37 lb/acre or less of BIOX-A): statistically similar
Marketable yield (Tygress tomato plants [3]; BIOX-A 0.69 lb/acre): 2.3 lb/plant
Marketable yield (Tygress tomato plants [3]; BIOX-A 1.37 lb/acre): 2.4 lb/plant
Marketable yield (Tygress tomato plants [3]; BIOX-A 2.86 lb/acre): 1.1 lb/plant
Marketable yield (Tygress tomato plants [3]; BIOX-A 5.52 lb/acre): 0 lb/plant
Marketable yield (Tygress tomato plants [3]; BIOX-A 8.28 lb/acre): 0 lb/plant
Non-marketable tomato yields compared with control (in words) (Tygress tomato plants [3]; BIOX-A at concentrations of 2.86 or higher): significantly higher non-marketable tomato yields than control
Marketable tomato yields (in words) (Tygress tomato plants [3]; BIOX-A at concentrations of 2.86 or higher, P<0.05): significantly decreased
